BindingDB's records for doi:10.1021/jm800588x (Eberhard Karls University Tuebingen, 2008)

Biological target: T1, Polyunsaturated fatty acid 5-lipoxygenase (Homo sapiens, UniProt P09917)
T1 sequence (P09917 whole entry): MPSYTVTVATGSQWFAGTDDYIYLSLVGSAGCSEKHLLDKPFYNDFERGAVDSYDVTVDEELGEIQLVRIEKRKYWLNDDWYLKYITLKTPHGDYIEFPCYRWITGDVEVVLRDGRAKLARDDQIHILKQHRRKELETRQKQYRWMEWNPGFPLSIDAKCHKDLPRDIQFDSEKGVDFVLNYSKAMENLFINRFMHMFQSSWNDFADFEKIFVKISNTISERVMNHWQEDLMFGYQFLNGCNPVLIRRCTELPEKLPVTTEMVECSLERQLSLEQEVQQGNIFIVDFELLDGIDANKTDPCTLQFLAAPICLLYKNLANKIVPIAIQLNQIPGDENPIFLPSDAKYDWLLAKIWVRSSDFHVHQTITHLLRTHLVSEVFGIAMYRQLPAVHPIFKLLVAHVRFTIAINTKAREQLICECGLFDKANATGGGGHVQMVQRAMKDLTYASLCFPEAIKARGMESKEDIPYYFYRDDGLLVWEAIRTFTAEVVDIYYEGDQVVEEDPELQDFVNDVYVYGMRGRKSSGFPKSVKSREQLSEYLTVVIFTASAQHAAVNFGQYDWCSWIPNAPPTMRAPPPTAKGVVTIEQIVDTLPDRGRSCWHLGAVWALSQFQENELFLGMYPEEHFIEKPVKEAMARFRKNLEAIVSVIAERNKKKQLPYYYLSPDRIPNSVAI
Test: Determination of 5-LO Product Formation in Intact Cells (EC50/IC50)
Details: pH 7.4; 37 °C
Procedure: For assays of intact cells, 5000,000 freshly isolated PMNL cells were resuspended in PGC buffer. After preincubation with the test compounds for 15 min at RT, 5-LO product formation was started by addition of ionophore A23187 plus arachidonic acid. Formed 5-LO metabolites were extracted and analyzed by HPLC. 5-LO product formation is expressed as ng of 5-LO products per 1000,000 cells, which includes LTB4 and its all-trans isomers, and 5(S)-hydro(pero)xy-6-trans- 8,11,14-cis-eicosatetraenoic acid.

Row | EC50 [nM] | SMILES
1 | 4100 | CCCCCCC(Sc1nc(Cl)cc(Nc2cccc(C)c2C)n1)C(=O)O (stereo not given) [2-({4-chloro-6-[(2,3-dimethylphenyl)amino]pyrimidin-2-yl}sulfanyl)octanoic acid]
2 | 3900 | O=C(O)CSc1nc(Cl)cc(Nc2cccc3c2CCC3)n1 [2-{[4-chloro-6-(2,3-dihydro-1H-inden-4-ylamino)pyrimidin-2-yl]sulfanyl}acetic acid]
3 | 1800 | CCOC(=O)C(Sc1nc(Cl)cc(Nc2cccc(C)c2C)n1)c1ccccc1 (stereo not given) [ethyl 2-({4-chloro-6-[(2,3-dimethylphenyl)amino]pyrimidin-2-yl}sulfanyl)-2-phenylacetate]
4 | 3200 | CCOC(=O)CSc1nc(Cl)cc(Nc2cccc3c2CCC3)n1 [ethyl 2-{[4-chloro-6-(2,3-dihydro-1H-inden-4-ylamino)pyrimidin-2-yl]sulfanyl}acetate]
5 | 1200 | CCOC(=O)C(Sc1nc(Cl)cc(Nc2ccc3ncccc3c2)n1)c1ccccc1 (stereo not given) [ethyl 2-{[4-chloro-6-(quinolin-6-ylamino)pyrimidin-2-yl]sulfanyl}-2-phenylacetate]
6 | 2600 | CCOC(=O)CSc1nc(Cl)cc(Nc2ccc3ncccc3c2)n1 [ethyl 2-{[4-chloro-6-(quinolin-6-ylamino)pyrimidin-2-yl]sulfanyl}acetate]
7 | 1100 | CCCCC(Sc1nc(Cl)cc(Nc2ccc3ncccc3c2)n1)C(=O)OCC (stereo not given) [ethyl 2-{[4-chloro-6-(quinolin-6-ylamino)pyrimidin-2-yl]sulfanyl}hexanoate]
8 | 1700 | CCCCCCC(Sc1nc(Cl)cc(Oc2ccc3ncccc3c2)n1)C(=O)OCC (stereo not given) [ethyl 2-{[4-chloro-6-(quinolin-6-yloxy)pyrimidin-2-yl]sulfanyl}octanoate]

Biological target: T1, Polyunsaturated fatty acid 5-lipoxygenase
Test: Determination of 5-LO Product Formation in Cell-Free Systems (IC50).
Details: pH 7.4; 37 °C
Procedure: For determination of the activity of 5-LO in 100000g supernatants, aliquots of the supernatants were added to reaction mix, and were preincubated with the test compounds before arachidonic acid was added to start 5-LO product formation. Formed 5-LO metabolites were extracted and analyzed by HPLC. 5-LO product includes LTB4 and its all-trans isomers, and 5(S)-hydro(pero)xy-6-trans- 8,11,14-cis-eicosatetraenoic acid. IC50s are expressed as mean +/- SE, obtained from measurements at 4-5 different concentrations of test compounds, and determined using Graphpad Instat (Graphpad Software Inc., San Diego, CA). EC50/IC50 values were obtained from product formation in PMNL intact cells.

Row | EC50 [nM] | SMILES
9 | 37000 | CCCCCCC(Sc1nc(Cl)cc(NCc2ccc3ncccc3c2)n1)C(=O)OCC (stereo not given) [ethyl 2-({4-chloro-6-[(quinolin-6-ylmethyl)amino]pyrimidin-2-yl}sulfanyl)octanoate]
10 | 19000 | CCCCCCC(Sc1nc(Cl)cc(Nc2ccc3ncccc3c2)n1)C(=O)OCC (stereo not given) [ethyl 2-{[4-chloro-6-(quinolin-6-ylamino)pyrimidin-2-yl]sulfanyl}octanoate]
